In general, IC50 refers to the concentration that inhibits the measured activity by half.

For the experiment, the target named is SAE1 (Homo sapiens (Human), UniProt Q9UBE0+Q9UBT2). Nature of the experiment: SAE High Throughput Biochemical Assay (HTRF), 15 min preincubation. Particulars: read-out: 15 min preincubation HTRF IC50 (μM) Ave, SAE1 12.5 nM, ATP 100 μM. On the procedure:
Assay buffer was prepared [50 mM HEPES, pH 7.5, 0.1% BSA and 10 mM MgCl2] as was the Stop Buffer [100 mM HEPES, pH 7.5, 0.05% Tween20, and 410 mM KF]. The 2×Reaction Buffer [80 nM SUMO-GST, 80 nM UBC9-His, 200 μM ATP and diluted in Assay Buffer] and Antibody Reaction Mix [13.34 nM anti-GSTXL665, 1.66 nM anti-His EuK and Diluted in Stop Buffer] were also prepared. Compounds were dissolved at 200×in DMSO in a 384-well plate. Serial dilutions were performed in DMSO for each compound, and then each concentration was diluted another 50-fold in Assay Buffer, to 4× the final concentration. 2.5 μL of each concentration was transferred into its own well in a 384-well plate. SAE1 was then diluted to 4× in Assay Buffer, and 2.5 μL of 4×SAE1 was mixed into each compound-containing well. After incubating for 15 minutes at RT, 5 μL of 2×Reaction Buffer was mixed into every well. Then after another 45 minutes at RT, 10 μL of Antibody Reaction Mix was added and mixed into every well. This plate was then read on an HTRF-compatible plate reader after 2 hours at RT, and again after sitting at RT overnight. [Final Component Concentrations: SAE1: 12.5 nM; SUMO-GST: 40 nM; UBC9-His: 40 nM; Anti-GST-XL665: 6.67 nM; Anti-His-EuK: 0.83 nM; and ATP: 100 μM] Alternatively, the compounds are tested at a single concentration of 25 micromolar and the percent of control is measured.

Sequence of SAE1 (Q9UBE0 whole entry): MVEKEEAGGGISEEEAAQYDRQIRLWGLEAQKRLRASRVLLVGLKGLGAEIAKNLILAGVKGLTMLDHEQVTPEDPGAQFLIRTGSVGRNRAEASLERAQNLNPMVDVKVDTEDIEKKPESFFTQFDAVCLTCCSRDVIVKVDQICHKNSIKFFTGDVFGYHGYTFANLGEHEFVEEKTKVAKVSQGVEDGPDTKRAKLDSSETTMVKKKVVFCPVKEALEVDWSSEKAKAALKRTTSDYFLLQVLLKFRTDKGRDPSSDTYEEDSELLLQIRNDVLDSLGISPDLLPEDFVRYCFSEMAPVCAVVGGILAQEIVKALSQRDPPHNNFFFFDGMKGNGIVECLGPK
Sequence of SAE1 (Q9UBT2 whole entry): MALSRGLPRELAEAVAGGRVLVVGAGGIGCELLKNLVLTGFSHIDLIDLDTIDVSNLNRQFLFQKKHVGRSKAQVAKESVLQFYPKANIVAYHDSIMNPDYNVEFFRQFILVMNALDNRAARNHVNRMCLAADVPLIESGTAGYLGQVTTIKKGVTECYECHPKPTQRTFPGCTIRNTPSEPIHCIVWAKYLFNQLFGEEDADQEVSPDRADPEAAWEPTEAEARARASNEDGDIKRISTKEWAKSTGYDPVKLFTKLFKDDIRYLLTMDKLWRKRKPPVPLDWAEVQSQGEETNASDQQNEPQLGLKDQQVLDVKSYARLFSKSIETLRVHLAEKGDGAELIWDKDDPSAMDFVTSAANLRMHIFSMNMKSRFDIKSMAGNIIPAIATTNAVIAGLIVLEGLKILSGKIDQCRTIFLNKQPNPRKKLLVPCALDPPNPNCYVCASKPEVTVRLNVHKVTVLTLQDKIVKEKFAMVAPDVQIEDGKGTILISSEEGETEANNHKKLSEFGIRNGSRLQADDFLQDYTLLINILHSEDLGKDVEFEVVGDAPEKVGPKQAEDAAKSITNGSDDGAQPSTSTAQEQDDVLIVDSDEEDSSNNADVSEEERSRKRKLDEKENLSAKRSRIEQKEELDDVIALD

On to `CCn1cc(-c2cc(CO)ccc2C2CN(C(=O)/C=C/CN(C)C)Cc3sc(C#N)cc32)c(C(F)(F)F)n1` (stereo not shown) [Example 194, (E)-6-(4-(Dimethylamino)but-2-enoyl)-4-(2-(1-ethyl-3-(trifluoromethyl)-1 H-pyrazol-4-yl)-4-(hydroxymethyl)phenyl)-4,5,6,7-tetrahydrothieno[2,3-c]pyridine-2-carbonitrile], for which the IC50 is over 25 µM.
For `CN(C)C/C=C/C(=O)N1Cc2sc(C#N)cc2[C@H](c2ccccc2-c2cn(CCc3ccncc3)nc2C(F)(F)F)C1` [Example 177, (S,E)-6-(4-(Dimethylamino)but-2-enoyl)-4-(2-(1-(2-(pyridin-4-yl)ethyl)-3-(trifluoromethyl)-1H pyrazol-4-yl)phenyl)-4,5,6,7-tetrahydrothieno[2,3-c]pyridine-2-carbonitrile], the IC50 was 6.3 µM.
Under `CCn1cc(-c2cc(F)ccc2C2CN(C(=O)/C=C/CN(C)C)Cc3sc(C#N)cc32)c(C(F)(F)F)n1` (stereo not shown) [Example 211, (E)-6-(4-(Dimethylamino)but-2-enoyl)-4-(2-(1-ethyl-3-(trifluoromethyl)-1 H-pyrazol-4 yl)-4-fluorophenyl)-4,5,6,7-tetrahydrothieno[2,3-c]pyridine-2-carbonitrile] stands 20.2 µM; under `CCn1cc(-c2ccccc2[C@@H]2CN(C(=O)/C=C/CNC3(C)CCOC3)Cc3sc(C#N)cc32)c(C(F)(F)F)n1` (stereo partly drawn) [Example 97, (4S)-4-(2-(1-Ethyl-3-(trifluoromethyl)-1 H-pyrazol-4-yl)phenyl)-6-((E)-4-((3-methyltetrahydrofuran-3-yl)amino)but-2-enoyl)-4,5,6,7-tetrahydrothieno[2,3-c]pyridine-2-carbonitrile], 2.76 µM.
On to `C=C(CO)C(=O)N1Cc2sc(C#N)cc2[C@H](c2ccccc2-c2cn(CC)nc2C(F)(F)F)C1` [Example 62, (S)-4-(2-(1-Ethyl-3-(trifluoromethyl)-1 H pyrazol-4-yl)phenyl)-6-(2-(hydroxymethyl)acryloyl)-4,5,6,7-tetrahydrothieno[2,3-c]pyridine-2-carbonitrile], for which the IC50 is over 25 µM.
On to `CCn1cc(-c2ccc(N)cc2C2CN(C(=O)/C=C/CN(C)C)Cc3sc(C#N)cc32)c(C(F)(F)F)n1` (stereo not shown) [Example 196, (E)-4-(5-Amino-2-(1-ethyl-3-(trifluoromethyl)-1 H-pyrazol-4-yl)phenyl)-6-(4-(dimethylamino)but-2-enoyl)-4,5,6,7-tetrahydrothieno[2,3-c]pyridine-2-carbonitrile], for which the IC50 is over 25 µM.
Under `CN(C)C/C=C/C(=O)N1Cc2sc(C#N)cc2[C@H](c2ccccc2C#N)C1` [Example 4, (S, E)-4-(2-Cyanophenyl)-6-(4-(dimethylamino)but-2-enoyl)-4,5,6,7-tetrahydrothieno[2,3-c]pyridine-2-carbonitrile] stands over 25 µM.
Consider `CCn1cc(-c2ccccc2[C@@H]2CN(C(=O)/C=C/[C@H](C)N)Cc3sc(C#N)cc32)c(C(F)(F)F)n1` [Example 49, (S)-6-((S,E)-4-aminopent-2-enoyl)-4-(2-(1-ethyl-3-(trifluoromethyl)11 H-pyrazol-4-yl)phenyl)-4,5,6,7-tetrahydrothieno[2,3-c]pyridine-2-carbonitrile], for which the IC50 is 10.1 µM.
In the case of `CCn1cc(-c2c(C3CN(C(=O)/C=C/CN(C)C)Cc4sc(C#N)cc43)ccc(F)c2Cl)c(C(F)(F)F)n1` (stereo not shown) [Example 187, (E)-4-(3-Chloro-2-(1-ethyl-3-(trifluoromethyl)-1 H-pyrazol-4-yl)-4-fluorophenyl)-6-(4-(dimethylamino)but-2-enoyl)-4,5,6,7-tetrahydrothieno[2,3-c]pyridine-2-carbonitrile] it was 8.1 µM; in that of `CCn1cc(-c2cc(C(F)F)ccc2C2CN(C(=O)/C=C/CN(C)C)Cc3sc(C#N)cc32)c(C(F)(F)F)n1` (stereo not shown) [Example 188, (E)-4-(4-(Difluoromethyl)-2-(1-ethyl-3-(trifluoromethyl)-1 H-pyrazol-4-yl)phenyl)-6-(4-(dimethylamino)but-2-enoyl)-4,5,6,7-tetrahydrothieno[2,3-c]pyridine-2-carbonitrile], 18 µM.
Under `CCn1cc(-c2ccccc2[C@@H]2CN(C(=O)/C=C/C3COCCN3)Cc3sc(C#N)cc32)c(C(F)(F)F)n1` (stereo partly drawn) [Example 76, (4S)-4-(2-(1-Ethyl-3-(trifluoromethyl)-1 H-pyrazol-4-yl)phenyl)-6-((E)-3-(morpholin-3-yl)acryloyl)-4,5,6,7-tetrahydrothieno[2,3-c]pyridine-2-carbonitrile] stands 14.7 µM; under `CN(C)C/C=C/C(=O)N1Cc2sc(C#N)cc2[C@H](c2ccccc2-c2cn(CC(N)=O)nc2C(F)(F)F)C1` [Example 162, (S, E)-2-(4-(2-(2-Cyano-6-(4-(dimethylamino)but-2-enoyl)-4,5,6,7-tetrahydrothieno[2,3-c]pyridin-4-yl)phenyl)-3-(trifluoromethyl)-1 H-pyrazol-1-yl)acetamide], 11.6 µM.
Under `CCn1cc(-c2c(F)cccc2[C@@H]2CN(C(=O)/C=C/CNC3CCN(C(C)=O)CC3)Cc3sc(C#N)cc32)c(C(F)(F)F)n1` [Example 57, (S, E)-6-(4-((1-acetylpiperidin-4-yl)amino)but-2-enoyl)-4-(2-(1-ethyl-3-(trifluoromethyl)-1 H-pyrazol-4-yl)-3-fluorophenyl)-4,5,6,7-tetrahydrothieno[2,3-c]pyridine-2-carbonitrile] stands over 25 µM.
`CCn1cc(-c2sccc2C2CN(C(=O)/C=C/CN(C)C)Cc3sc(C#N)cc32)c(C(F)(F)F)n1` (stereo not shown) [Example 207, (E)-6-(4-(Dimethylamino)but-2-enoyl)-4-(2-(1-ethyl-3-(trifluoromethyl)-1H pyrazol-4-yl)thiophen-3-yl)-4,5,6,7-tetrahydrothieno[2,3-c]pyridine-2-carbonitrile]: the IC50 was over 25 µM.
On to `CN(C)C/C=C/C(=O)N1Cc2sc(C#N)cc2[C@H](c2ccccc2-c2cn(CCc3ccccn3)nc2C(F)(F)F)C1` [Example 176, (S, E)-6-(4-(Dimethylamino)but-2-enoyl)-4-(2-(1-(2-(pyridin-2-yl)ethyl)-3-(trifluoromethyl)-1H-pyrazol-4-yl)phenyl)-4,5,6,7-tetrahydrothieno[2,3-c]pyridine-2-carbonitrile], for which the IC50 was found to be 19.9 µM.
In the case of `CCn1cc(-c2c(F)cccc2[C@@H]2CN(C(=O)/C=C/CN[C@@H]3CCOC3)Cc3sc(C#N)cc32)c(C(F)(F)F)n1` [Example 55, (S)-4-(2-(1-ethyl-3-(trifluoromethyl)-1 H-pyrazol-4-yl)-3-fluorophenyl)-6-((E)-4-(((R)-tetrahydrofuran-3-yl)amino)but-2-enoyl)-4,5,6,7-tetrahydrothieno[2,3-c]pyridine-2-carbonitrile] it was 1.66 µM; in that of `CN(C)C/C=C/C(=O)N1Cc2sc(C#N)cc2[C@H](c2ccccc2-c2cn(Cc3ncno3)nc2C(F)(F)F)C1` [Example 166, (S,E)-4-(2-(1-((1,2,4-Oxadiazol-5-yl)methyl)-3-(trifluoromethyl)-1H pyrazol-4-yl)phenyl)-6-(4-(dimethylamino)but-2-enoyl)-4,5,6,7-tetrahydrothieno[2,3-c]pyridine-2-carbonitrile], 19.9 µM; in that of `CN(C)C/C=C/C(=O)N1Cc2sc(C#N)cc2[C@H](c2ccccc2-c2cn(CC(=O)O)nc2C(F)(F)F)C1` [Example 172, (S, E)-2-(4-(2-(2-Cyano-6-(4-(dimethylamino)but-2-enoyl)-4,5,6,7-tetrahydrothieno[2,3-c]pyridin-4-yl)phenyl)-3-(trifluoromethyl)-1H pyrazol-1-yl)acetic acid], 21.1 µM.
With `CCn1cc(-c2cc(NC(=O)NC)ccc2C2CN(C(=O)/C=C/CN(C)C)Cc3sc(C#N)cc32)c(C(F)(F)F)n1` (stereo not shown) [Example 195, (E)-1-(4-(2-Cyano-6-(4-(dimethylamino)but-2-enoyl)-4,5,6,7-tetrahydrothieno[2,3-c]pyridin-4-yl)-3-(1-ethyl-3-(trifluoromethyl)-1 H-pyrazol-4-yl)phenyl)-3-methylurea], the IC50 is 11.3 µM.
In the case of `CCOC(=O)CCn1cc(-c2ccccc2[C@@H]2CN(C(=O)/C=C/CN(C)C)Cc3sc(C#N)cc32)c(C(F)(F)F)n1` [Example 170, Ethyl (S,E)-3-(4-(2-(2-cyano-6-(4-(dimethylamino)but-2-enoyl)-4,5,6,7-tetrahydrothieno[2,3-c]pyridin-4-yl)phenyl)-3-(trifluoromethyl)-1H pyrazol-1-yl)propanoate], the IC50 stood at 10.2 µM.
Under `CCn1cc(-c2ccccc2[C@@H]2CN(C(=O)C#CCN3CCN(C)CC3)Cc3sc(C#N)cc32)c(C(F)(F)F)n1` [Example 143, (S)-4-(2-(1-Ethyl-3-(trifluoromethyl)-1 H pyrazol-4-yl)phenyl)-6-(4-(4-methylpiperazin-1-yl)but-2-ynoyl)-4,5,6,7-tetrahydrothieno[2,3-c]pyridine-2-carbonitrile] stands 2.18 µM; under `CCOC(=O)CCCn1cc(-c2ccccc2[C@@H]2CN(C(=O)/C=C/CN(C)C)Cc3sc(C#N)cc32)c(C(F)(F)F)n1` [Example 171], 12 µM.
